From PMC7290078, “Agonist bias and agonist‐dependent antagonism at corticotrophin releasing factor receptors” (Pharmacology Research & Perspectives, 2020)

Target: T1, CRF2 receptor (hCRF2α) (Homo sapiens, UniProt Q13324)
T1 construct: host or cells: Cos7 cells, transient transfection (PEI), pcDNA3.0/3.1 vector
T1 sequence (Q13324 1-411): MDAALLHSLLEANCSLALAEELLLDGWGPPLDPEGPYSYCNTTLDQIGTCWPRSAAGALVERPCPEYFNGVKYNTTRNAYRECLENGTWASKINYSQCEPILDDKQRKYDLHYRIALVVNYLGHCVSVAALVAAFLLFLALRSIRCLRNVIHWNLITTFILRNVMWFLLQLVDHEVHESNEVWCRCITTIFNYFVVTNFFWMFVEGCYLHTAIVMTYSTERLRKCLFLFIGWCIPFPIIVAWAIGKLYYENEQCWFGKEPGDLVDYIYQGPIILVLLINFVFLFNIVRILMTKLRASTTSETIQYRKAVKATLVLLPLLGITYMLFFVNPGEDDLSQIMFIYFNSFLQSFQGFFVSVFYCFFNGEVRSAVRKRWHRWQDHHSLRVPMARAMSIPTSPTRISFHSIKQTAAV
Test: Antagonism of agonist-mediated cAMP accumulation in Cos7 cells expressing CRF2 receptors
Format: cell-based
Conditions: for antagonist potency (pKB): hCRF2α, global Schild analysis, mean ± SEM, n = 5
From the text: Plasmids containing hCRF1α and hCRF2α (GenBank accession numbers AY457172 and AY449734) were obtained from the cDNA Resource Centre (Bloomsburg University) and are referred to as CRF1 and CRF2 in this manuscript. Hemagglutinin (HA) epitope‐tagged human Calcitonin (CT) receptor (CT(a) splice variant) and myc‐tagged human RAMP1 were used as described previously. ^27 HA‐tagged human calcitonin receptor‐like receptor (CLR), N‐terminal FLAG‐tagged human RAMP3 and N‐terminal myc‐tagged human RAMP3 were a gift from Professor David Poyner (Aston University) and Professor Patrick Sexton (Monash University), respectively. N‐terminal FLAG‐tagged human RAMP2 was used as described previously. ^28 All receptors and RAMPs were cloned in pcDNA3.0 or pcDNA3.1 plasmid vectors. All plasmid inserts were sequenced at the Centre for Genomics, Proteomics and Metabolomics (University of Auckland) and the sequences were verified prior to use.
Cos7, HEK‐293S, and HEK‐293T cells were cultured as described previously. ^28 , ^29 Cos7 cells were originally supplied by the ATCC to Associate Professor Nigel Birch (University of Auckland). HEK‐293S cells were a gift from Professor David Poyner (Aston University) and HEK‐293T cells a gift from Professor John Taylor (University of Auckland). Briefly, all cell lines were cultured in Dulbecco's Modified Eagle Medium (DMEM) supplemented with 8% heat inactivated fetal bovine serum (FBS) and maintained in a humidified incubator at 37°C with 5% CO2. For transfection, cells were counted (Countess CounterTM; Life Technologies) and plated at a density of 20 000 cells per well in 96‐well plates. The cells were transiently transfected 48 hours prior to assaying using polyethylenimine (PEI), as described previously. ^28 , ^29 In all experiments a total of 0.25 μg DNA was transfected per well. In the majority of experiments 0.25 μg DNA of receptor‐containing plasmid or the pcDNA3.1 plasmid without an insert was used. For experiments involving RAMPs, 0.125 μg of receptor DNA and 0.125 μg of RAMP‐containing plasmid DNA were transfected to give a 1:1 ratio of receptor to RAMP. Where the RAMP or receptor were transfected alone, the ratio of DNA was made up with the pcDNA3.1 plasmid.
cAMP accumulation in Cos7 cells transfected with hCRF1α or hCRF2α receptors was measured using the LANCE cAMP detection assay kit (PerkinElmer Life and Analytical Sciences) as described previously. ^30 Briefly, culture media was removed and replaced with DMEM containing 0.1% bovine albumin serum (BSA) and 1 mmol/L 3‐isobutyl‐1‐methylxanthine (IBMX) for 30 minutes at 37°C. Cells were incubated for an additional 15 minutes at 37°C with media or agonist concentrations of 1 pmol/L to 1 µmol/L for agonist only assays or 10 pmol/L to 10 µmol/L concentrations for antagonist experiments. Antagonists were added simultaneously or immediately prior to the addition of agonists. To stop cell stimulation and extract cAMP, the contents of the wells were replaced with 50 µL absolute ethanol. Samples were left at −20°C for a minimum of 10 minutes. The ethanol was evaporated and replaced with 50 µL of cAMP detection buffer. Samples were shaken for 15 minutes before 5 µL cell lysate was transferred to a white 384‐well optiplate and processed for cAMP quantification as described previously. ^31 Samples were read using an Envision plate reader (PerkinElmer). cAMP concentrations were determined from a standard curve generated in duplicate.
In all experiments the position of peptides and antagonists (pharmacology) or transfected receptors (ELISAs) on assay plates was randomized during each independent experiment, which are independent biological replicates. In all cases, duplicate, triplicate, or quadruplicate technical replicates were conducted for each independent experiment.

## CCC(CC)Nc1cc(C)nc(Oc2c(C)cc(C)cc2C)c1C [CP‐376,395]
100 µM, CRF2 receptor
  effect on CRF‐mediated cAMP accumulation: no effect
  effect on UCN1‐mediated cAMP accumulation: no effect
Agonist CRF, cAMP
  antagonist potency (pKB): <4
Agonist UCN1, cAMP
  antagonist potency (pKB): <4
